Experimental data taken from US11312690B2, “Compounds, compositions, methods for treating diseases, and methods for preparing compounds” (UNIVERSITY OF LOUISVILLE RESEARCH FOUNDATION, INC., priority 2015, dated 2022).

Key:
Mia-PaCa-2 cells = assay: Mia-PaCa-2 sub-cutaneous xenograft, primary tumor growth and lung metastasis; format: in vivo, NRG mice; conditions: 10 mg/kg ip every other day for 2 weeks, scored one week later
Procedure: Some compounds of Formula (I) suppress pancreatic cancer cell metastasis—FIG. 6. NRG mice were sub-cutaneously inoculated with PBS (“no tumor cells”) or 5×10^6 Ras driven Mia-PaCa-2 cells. Mice were allowed to recover for 1 week and then injected (ip) with PBS/DMSO carrier or 10 mg/kg of compound I-1 every other day for 2 weeks. One week later, mice were scored for primary tumor growth and lung metastasis.

Panc-1 [1] = assay: Soft agar colony formation; format: cell-based, human
Procedure: FIG. 1. Effects of some compounds of Formula (I) on RalGEF inhibitor on soft agar growth and normal growth in 2D of pancreatic carcinoma cell lines. In FIGS. 1A and 1B, Panc-1 (ATCC® CRL-1469™) and MiaPaCa-2 (ATCC® CRL-1420™) mutant Ras containing pancreatic tumor cell lines were plated in soft agar in the presence of 10 μM or 0.9 μM of compound I-1 and scored for the formation of colonies. In FIGS. 1C and 1D, compound I-1 was then tested for the ability to inhibit cell growth on the same cell lines under normal 2D growth conditions on plastic. “0” is the carrier. Cells were seeded at the same density and scored after two weeks in culture.
Human pancreatic tumor cell lines MiaPaca-2 and Panc-1 contain activated K-Ras and were used in the initial screen to identify compound I-1. Soft agar colony formation remains an established in vitro assay to predict tumorigenicity and was used to predict tumorigenicity for compound I-1.

[2] = biological target: T1, interaction of K-Ras with RGL2 (Homo sapiens, UniProt O15211); assay: Ras/RalGEF binding, immunoprecipitation and immunoblot from co-transfected HEK-293 cells; conditions: 10 μM, HA K-Ras 12v and GFP-RGL2, IP/IB, FIG. 3B
T1 construct: expressed in transfected cells; host or cells: HEK-293
T1 sequence (O15211 1-777): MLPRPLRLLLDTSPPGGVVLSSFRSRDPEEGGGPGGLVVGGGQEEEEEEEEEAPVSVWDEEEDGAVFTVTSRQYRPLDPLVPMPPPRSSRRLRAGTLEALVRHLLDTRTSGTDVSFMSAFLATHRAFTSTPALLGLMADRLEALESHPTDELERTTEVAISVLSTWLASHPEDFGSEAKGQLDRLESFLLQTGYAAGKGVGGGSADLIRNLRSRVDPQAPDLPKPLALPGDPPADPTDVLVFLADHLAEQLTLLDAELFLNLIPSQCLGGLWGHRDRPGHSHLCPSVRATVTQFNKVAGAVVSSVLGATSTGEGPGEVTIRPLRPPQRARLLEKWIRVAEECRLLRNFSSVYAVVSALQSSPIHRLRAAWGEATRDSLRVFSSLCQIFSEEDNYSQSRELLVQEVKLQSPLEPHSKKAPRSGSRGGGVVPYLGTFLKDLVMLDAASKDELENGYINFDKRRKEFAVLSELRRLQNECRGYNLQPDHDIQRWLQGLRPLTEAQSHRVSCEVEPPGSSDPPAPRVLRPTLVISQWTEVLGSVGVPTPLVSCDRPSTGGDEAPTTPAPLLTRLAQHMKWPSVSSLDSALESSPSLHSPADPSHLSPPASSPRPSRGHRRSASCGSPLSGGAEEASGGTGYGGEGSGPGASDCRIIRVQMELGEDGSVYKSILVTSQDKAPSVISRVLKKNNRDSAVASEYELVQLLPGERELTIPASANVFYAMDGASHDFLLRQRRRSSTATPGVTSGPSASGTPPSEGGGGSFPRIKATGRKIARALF

[3] = test system: D283 Med (Medulloblastoma); assay: Tumorigenic phenotype in vitro, Ras driven tumor cell line; format: cell-based; conditions: data not shown
Source text: (§1) (ATCC® HTB-75™)(ovarian cancer); D283 Med (ATCC® HTB-185™) (Medulloblastoma); A549 (ATCC® CCL-185™) (lung cancer); and LNCaP clone FGC (ATCC® CRL1740™) (prostate cancer).

[4] = test system: Caov-3 [Caov3] (ovarian cancer); assay: as above; format: cell-based; conditions: data not shown
Source text: as §1

[5] = test system: LNCaP clone FGC (prostate cancer); assay: as above; format: cell-based; conditions: data not shown
Source text: as §1

A549 (lung cancer) = assay: as above; format: cell-based; conditions: data not shown
Source text: as §1

Panc-1 [6] = assay: Normal 2D growth on plastic; format: cell-based, human; conditions: normal 2D growth conditions on plastic, 1 week, FIG. 1C
Procedure: (§2) FIG. 1. Effects of some compounds of Formula (I) on RalGEF inhibitor on soft agar growth and normal growth in 2D of pancreatic carcinoma cell lines. In FIGS. 1A and 1B, Panc-1 (ATCC® CRL-1469™) and MiaPaCa-2 (ATCC® CRL-1420™) mutant Ras containing pancreatic tumor cell lines were plated in soft agar in the presence of 10 μM or 0.9 μM of compound I-1 and scored for the formation of colonies. In FIGS. 1C and 1D, compound I-1 was then tested for the ability to inhibit cell growth on the same cell lines under normal 2D growth conditions on plastic. “0” is the carrier. […]

MiaPaCa-2 = assay: Normal 2D growth on plastic; format: cell-based, human; conditions: normal 2D growth conditions on plastic, 1 week, FIG. 1D
Procedure: as §2

Structure (SMILES): COc1cccc(CNc2nc(CN(C)Cc3cccc(OC)c3)nc3sc(C)c(C)c23)c1 [Compound I-1]
- effects on the primary tumor (Mia-PaCa-2 cells): not obvious
- lung metastasis (Mia-PaCa-2 cells; FIG. 6): metastasis was inhibited
- ability of the cells to grow in soft agar (Panc-1 [1]; 10 μM, FIG. 1A): almost completely blocked
- tumorigenic phenotype in vitro (Panc-1 [1]; FIG. 1A): blocks the tumorigenic phenotype in vitro at low μM or sub μM levels
- IC50 (Panc-1 [1]; Homo sapiens, PANC-1, soft agar, titration experiments, data not shown, read-out: IC50 (concentration that inhibits 50% of colony formation)): < 1000 nM
- inhibition of RGL2 (Ras/RGL2 interaction) [2]: also inhibited RGL2
- tumorigenic phenotype in vitro [3]: blocks the tumorigenic phenotype in vitro
- tumorigenic phenotype in vitro [4]: blocks the tumorigenic phenotype in vitro
- tumorigenic phenotype in vitro [5]: blocks the tumorigenic phenotype in vitro
- tumorigenic phenotype in vitro (A549 (lung cancer)): blocks the tumorigenic phenotype in vitro
- cell growth in 2D (Panc-1 [6]): no reduction in growth
- cell growth in 2D (MiaPaCa-2): no reduction in growth
